In publication PMC11091220, “Metabolism-driven in vitro/in vivo disconnect of an oral ERɑ VHL-PROTAC” (Communications Biology, 2024):
Values joined by “and” are separate entries in the source; they are usually repeats but may differ in a detail not shown here. Equal values may be shown once. Read-outs that look alike come from different tables or passages of the source.

Tests used:
[1] = Plasma protein binding (RED device), mouse plasma; assay type: in vitro ADME; conditions: for Mouse fup: fraction unbound in plasma; for Mouse fup, Free: fraction free
Procedure: Plasma protein binding was completed using a RED device. The test compound was prepared to 1 mM in 100% DMSO and further diluted in plasma to achieve a final compound concentration of 5 μM in the incubation. Phosphate buffered solution pH 7.4 (500 μL) was added to the receiver chamber of the RED device and spiked plasma (300 μL) was added to the donor chamber. The plate was covered with a gas-permeable lid and incubated for 18 h at 37 °C with 5% CO2 on an orbital shaker at 300 rpm. At the end of incubation, 50 μL of post-dialysis sample from the donor and receiver wells were aliquot into separate wells and matrix-matched with 50 μL of phosphate buffer solution pH 7.4 or blank plasma, respectively. The samples were subsequently quenched separately in 400 μL of ice-cold 100% acetonitrile. Quenched samples were shaken at 1000 rpm for 10 min and centrifuged for 30 min at 4000 rpm to pellet precipitated protein. The supernatant fraction was further diluted 1:1 with deionised water for analysis by LC MS/MS[17].

ERα = molecular target: T1, ERα (Homo sapiens, UniProt P03372); test: ERα high throughput imaging degradation assay in MCF7 cells; assay type: cell-based; conditions: for Dmax: MCF7; for DC50: MCF7 cells, 20 to 24 hours; for ERa degradation (% vs fulv): Figure 6e, individual replicates
T1 construct: endogenous in cells; host or cells: MCF7 (also MCF7 engineered to express Cas9)
T1 sequence (P03372 1-595): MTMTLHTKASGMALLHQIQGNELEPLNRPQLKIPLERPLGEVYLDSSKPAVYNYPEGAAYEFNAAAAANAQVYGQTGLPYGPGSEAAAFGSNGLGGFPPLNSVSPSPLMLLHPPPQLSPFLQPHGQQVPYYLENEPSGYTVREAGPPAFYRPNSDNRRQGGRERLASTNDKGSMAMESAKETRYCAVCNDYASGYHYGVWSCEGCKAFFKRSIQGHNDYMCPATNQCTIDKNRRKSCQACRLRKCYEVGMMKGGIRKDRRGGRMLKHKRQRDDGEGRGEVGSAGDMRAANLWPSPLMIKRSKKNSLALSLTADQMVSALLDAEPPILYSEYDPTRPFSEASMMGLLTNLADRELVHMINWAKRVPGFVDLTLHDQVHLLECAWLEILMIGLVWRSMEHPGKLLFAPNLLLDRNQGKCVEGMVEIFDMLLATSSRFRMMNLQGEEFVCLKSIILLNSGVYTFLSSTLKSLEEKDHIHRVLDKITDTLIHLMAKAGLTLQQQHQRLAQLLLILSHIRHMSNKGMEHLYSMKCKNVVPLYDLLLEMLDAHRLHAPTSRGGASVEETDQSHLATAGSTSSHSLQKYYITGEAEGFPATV
Procedure: Cells were fixed, permeabilised and stained with anti-ERα (rabbit clone SP1, Thermo) and anti-PR (mouse clone PgR 636, Dako) antibodies followed by secondary AlexaFluor 594 goat anti-rabbit and AlexaFluor 488 goat anti-mouse IgG antibodies. Imaging was using the Thermo Cellinsight scanner and average fluorescence intensity was analysed using Genedata.

Chromatographic LogD = assay type: physicochemical; conditions: Waters Acquity BEH C18 column, pH 7.4
Procedure: An HPLC with UV detection using diode array detection over a wavelength range of 210-320 nm and confirmation by electrospray mass spectrometry (pos/neg ionisation) is used to determine the chromatographic LogD of compounds. Test compounds, calibrants, and QC samples are prepared as 10 mM stocks in DMSO and further diluted to a final concentration of 0.6 mM in DMSO. […] The chromatographic system is calibrated using standards with known literature values of octanol-water partition coefficient at pH 7.4 (logD7.4) and retention factors, k’, of calibrants, QCs, and samples calculated using equation: k’=(rt-t0)/t0.

[2] = Total plasma exposure of AZ’6421 and metabolite 8 in rat; assay type: in vivo; conditions: for Total plasma: rat, individual animals, analyte = label
Procedure: (§1) Fig. 8 Evidence of ER agonism of AZ’6421 and compound 8 in vitro and in vivo. a 100 nM compound or 10 nM estradiol (E2) were incubated with Ishikawa cells for 48 h and lysates measured for PR expression by western blot. b Normalised rat uterine weight shown as % change from respective vehicle control after 4 days dosing. c Representative H&E stained images taken from sections of uterine horn after 4 days of dosing. d Total plasma exposure of AZ’6421 and its metabolite 8 following dosing of 100 mg/kg BID or 30 mg/kg BID AZ’6421. Plasma samples were taken 4 hr after the 4th dose, at the same time as the uterus was weighed and sectioned for H&E staining.
Each plasma sample ([…]) was prepared using an appropriate dilution factor, and compared against an 11-point standard calibration curve (1-10000 nM) prepared in DMSO and spiked into blank plasma. Acetonitrile ([…]) was added with the internal standard, followed by centrifugation at 3000 rpm for 10 minutes. The supernatant ([…]) was then diluted in […] acetonitrile:water (75:25) and analyzed via UPLC-MS/MS.

PR expression = test: ER agonism: PR expression in Ishikawa cells by western blot; assay type: cell-based; conditions: for PR expression (% vs 10 nM E2): 100 nM compound, individual replicates; for PR expression in the Ishikawa endometrial cell line: 100 nM, 48 h
Procedure: as §1
Cells were seeded into 12-well tissue culture-treated plates at 0.5 x 10^6 cells/well in phenol red-free RPMI containing 5% (v/v) charcoal-stripped FBS (F6765, Sigma) and left to adhere overnight. In experiments to detect agonism or for SILAC experiments, FBS was double stripped using activated charcoal. Cells were treated with compound or 0.1% DMSO vehicle control for the times indicated prior to being lysed in Pierce RIPA buffer (Thermo Scientific), supplemented with protease and phosphatase inhibitors. Expression levels of proteins were determined by standard western blotting techniques (BioRad 4%-12% Bis-Tris gels). Antibodies were diluted in 5% milk-PBS-Tween and protein levels were detected using Pierce WestDura chemiluminescent reagents followed by visualisation and quantification on a Syngene ChemiGenius Imager. Where blots were quantified, protein levels were normalised to beta-actin or vinculin control and expressed as % of vehicle control.

[3] = reverse-phase HPLC, read-out: chrom LogD
[4] = reversed-phase HPLC, Table 2 source data, read-out: ChromLogD
[5] = AZ'6421 dosed 30 mg/kg BID, 30 mg/kg
[6] = AZ'6421 dosed 100 mg/kg BID, 100 mg/kg

Cc1ncsc1-c1ccc(CNC(=O)[C@@H]2C[C@@H](O)CN2C(=O)[C@@H](NC(=O)COCCCOCCCOc2cc(F)c([C@@H]3c4[nH]c5ccccc5c4C[C@@H](C)N3CC(C)(C)F)c(F)c2)C(C)(C)C)cc1 [Compound 5]
free in mouse plasma [1]: 0.02% | Mouse fup [1]: 0.0002 (1) | Mouse fup, Free ([1]; mouse plasma): 0.0002 | Degradation vs fulvestrant (ERα; Log M -7.0, listed as AZ'6421): 101.3% and 100.0% and 100.9% and 100.7% and 96.8% and 100.1% and 99.4% and 99.7% | Dmax (ERα; MCF7, read-out: ERα imaging Dmax, 0% vehicle control, 100% fulvestrant): 100 ± 1% | DC50 (ERα): 0.4 ± 0.1 nM | ERa degradation (% vs fulv) (ERα; log[compound] (M) -6.52, listed as AZ'6421): 99.33% and 99.93% and 101.36% and 100.78% and 99.17% and 100.53% and 100.63% and 100.07% and 100.14% and 100.02% | ERa degradation (% vs fulv) (ERα; log[compound] (M) -7.00, listed as AZ'6421): 101.32% and 100.02% and 100.91% and 100.71% and 100.90% and 96.75% and 100.07% and 99.39% and 100.12% and 99.67% | ERa degradation (% vs fulv) (ERα; log[compound] (M) -7.51, listed as AZ'6421): 100.79% and 99.35% and 100.85% and 99.32% and 100.51% and 92.08% and 99.13% and 99.41% and 100.03% and 98.51% | ERa degradation (% vs fulv) (ERα; log[compound] (M) -9.00, listed as AZ'6421): 93.78% and 65.44% and 89.78% and 70.27% and 72.25% and 75.33% and 76.06% and 75.57% and 73.41% and 66.07% | ERa degradation (% vs fulv) (ERα; log[compound] (M) -9.51, listed as AZ'6421): 66.11% and 33.08% and 64.57% and 26.47% and 39.19% and 41.32% and 37.58% and 27.55% and 33.68% and 36.35% | ERa degradation (% vs fulv) (ERα; log[compound] (M) -9.90, listed as AZ'6421): 38.07% and 5.08% and 43.62% and 16.97% and 24.51% and 17.96% and 13.58% and 13.52% and 2.56% and 2.84% | ERa degradation (% vs fulv) (ERα; log[compound] (M) -10.51, listed as AZ'6421): 17.15% and -10.39% and 19.63% and 15.57% and 7.27% and 25.30% and 2.21% and -11.02% and -6.17% and -0.64% | ERa degradation (% vs fulv) (ERα; log[compound] (M) -10.90, listed as AZ'6421): 22.79% and -6.31% and 31.83% and 8.09% and 2.16% and 2.02% and 3.46% and -2.88% and 3.42% and 4.13% | ERa degradation (% vs fulv) (ERα; log[compound] (M) -11.51, listed as AZ'6421): 16.49% and -4.42% and 21.83% and -8.62% and -7.44% and -0.35% and 7.90% and 8.64% and 8.25% and -5.38% | ERa degradation (% vs fulv) (ERα; log[compound] (M) -12.51, listed as AZ'6421): 22.96% and -5.76% and 24.26% and -2.82% and -3.01% and -3.46% and -11.46% and 15.61% and -2.65% and -10.83% | chromatographic logD (Chromatographic LogD; [3]): 6.6 ± 0.4 | chromatographic logD (Chromatographic LogD; [4]): 6.6 | Total plasma [2, 5]: 0.1461 µM and 0.4943 µM and 0.0995 µM | Total plasma [2, 6]: 1.2846 µM and 2.0194 µM and 0.7522 µM and 0.1020 µM and 0.0689 µM | PR expression (% vs 10 nM E2) (PR expression; listed as AZ'6421): 0.39% and 0.32% | PR expression in the Ishikawa endometrial cell line (PR expression): failed to induce PR expression

C[C@@H]1Cc2c([nH]c3ccccc23)[C@@H](c2c(F)cc(OCCC(=O)O)cc2F)N1CC(C)(C)F [Compound 8]
free in mouse plasma [1]: 0.5% | Mouse fup [1]: 0.005 (1) | difference in the free levels vs AZ’6421 ([1]; mouse plasma): 25 fold | Mouse fup, Free ([1]; mouse plasma): 0.005 | Dmax (ERα; 0% vehicle control, 100% fulvestrant, read-out: ERα imaging Dmax): 86 ± 4% | DC50 (ERα): 0.5 ± 0.1 nM | ERa degradation (% vs fulv) (ERα; log[compound] (M) -6.52): 86.16% and 85.41% and 90.14% and 89.92% and 86.68% and 83.66% and 85.58% and 80.53% | ERa degradation (% vs fulv) (ERα; log[compound] (M) -7.00): 65.22% and 84.95% and 90.84% and 90.97% and 84.15% and 85.62% and 84.72% and 83.12% | ERa degradation (% vs fulv) (ERα; log[compound] (M) -7.51): 87.11% and 87.02% and 90.35% and 91.70% and 85.51% and 86.15% and 84.84% and 84.81% | ERa degradation (% vs fulv) (ERα; log[compound] (M) -7.90): 81.45% and 85.48% and 90.59% and 86.35% and 80.42% and 79.30% and 79.15% and 77.88% | ERa degradation (% vs fulv) (ERα; log[compound] (M) -8.52): 80.28% and 76.86% and 80.57% and 81.16% and 72.31% and 67.13% and 75.58% and 76.43% | ERa degradation (% vs fulv) (ERα; log[compound] (M) -9.00): 64.37% and 61.04% and 63.02% and 63.61% and 52.14% and 45.07% and 64.32% and 69.99% | ERa degradation (% vs fulv) (ERα; log[compound] (M) -9.51): 21.08% and 35.46% and 24.68% and 25.02% and 22.82% and 21.75% and 38.96% and 36.82% | ERa degradation (% vs fulv) (ERα; log[compound] (M) -9.90): 20.56% and 6.22% and 6.66% and 18.09% and -5.08% and 24.12% and -6.47% and -3.82% | ERa degradation (% vs fulv) (ERα; log[compound] (M) -10.51): -1.75% and -2.12% and 13.25% and 9.62% and 10.07% and 23.66% and -5.98% and -1.61% | ERa degradation (% vs fulv) (ERα; log[compound] (M) -10.90): -0.94% and -3.29% and -5.11% and -4.81% and 28.56% and 0.42% and 1.50% and -12.94% | ERa degradation (% vs fulv) (ERα; log[compound] (M) -11.51): 5.64% and 1.40% and -9.86% and -6.66% and -0.74% and -8.00% and -7.44% and -13.98% | ERa degradation (% vs fulv) (ERα; log[compound] (M) -12.51): -13.89% and 2.41% and -4.59% and -2.38% and -17.18% and -3.64% and -7.40% and -8.33% | chromatographic logD (Chromatographic LogD; [3]): 3.8 | chromatographic logD (Chromatographic LogD; [4]): 3.8 | level in rat plasma ([2]; after dosing AZ’6421): found at sizable levels in rat plasma | Total plasma [2, 5]: 1.0069 µM and 2.5325 µM and 3.6803 µM and 2.8962 µM and 0.8884 µM | Total plasma [2, 6]: 7.8737 µM and 9.6410 µM and 6.9833 µM and 3.4205 µM and 4.6683 µM | PR expression (% vs 10 nM E2) (PR expression): 4.18% and 6.31% | PR expression in the Ishikawa endometrial cell line (PR expression): induced PR expression to a similar extent as AZD9496
